According to US20030190377A1, “Novel use of the extract of processed Panax genus plant and saponin compound isolated therefrom” (Ginseng Science Inc., priority 2002, published 2003):
In brackets after ≈: the same amount, converted by molar mass. Read-outs that look alike come from different tables or passages of the source.

What was measured:
Helicobacter pylori = test: Inhibitory effect on proliferation of Helicobacter pylori (MIC, Brucella agar); assay type: cell-based
H+/K+-ATPase = H+/K+-ATPase (Rattus norvegicus, UniProt P09626); test: H+/K+-ATPase activity inhibition test; settings: for IC50 for H+/K+-ATPase: stomach enzyme, pre-incubated 37° C. 30 minutes, pH 7.4
[1] = H. pylori strain ATCC 43504, 37° C., 3 days
[2] = H. pylori strain Clinical 4, 37° C., 3 days
[3] = H. pylori strain Clinical 82516, 37° C., 3 days
[4] = H. pylori strain Clinical 82548, 37° C., 3 days
[5] = H. pylori strain NCTC 11637, 37° C., 3 days
[6] = H. pylori strain NCTC 11638, 37° C., 3 days

Chain of H+/K+-ATPase (P09626 whole entry): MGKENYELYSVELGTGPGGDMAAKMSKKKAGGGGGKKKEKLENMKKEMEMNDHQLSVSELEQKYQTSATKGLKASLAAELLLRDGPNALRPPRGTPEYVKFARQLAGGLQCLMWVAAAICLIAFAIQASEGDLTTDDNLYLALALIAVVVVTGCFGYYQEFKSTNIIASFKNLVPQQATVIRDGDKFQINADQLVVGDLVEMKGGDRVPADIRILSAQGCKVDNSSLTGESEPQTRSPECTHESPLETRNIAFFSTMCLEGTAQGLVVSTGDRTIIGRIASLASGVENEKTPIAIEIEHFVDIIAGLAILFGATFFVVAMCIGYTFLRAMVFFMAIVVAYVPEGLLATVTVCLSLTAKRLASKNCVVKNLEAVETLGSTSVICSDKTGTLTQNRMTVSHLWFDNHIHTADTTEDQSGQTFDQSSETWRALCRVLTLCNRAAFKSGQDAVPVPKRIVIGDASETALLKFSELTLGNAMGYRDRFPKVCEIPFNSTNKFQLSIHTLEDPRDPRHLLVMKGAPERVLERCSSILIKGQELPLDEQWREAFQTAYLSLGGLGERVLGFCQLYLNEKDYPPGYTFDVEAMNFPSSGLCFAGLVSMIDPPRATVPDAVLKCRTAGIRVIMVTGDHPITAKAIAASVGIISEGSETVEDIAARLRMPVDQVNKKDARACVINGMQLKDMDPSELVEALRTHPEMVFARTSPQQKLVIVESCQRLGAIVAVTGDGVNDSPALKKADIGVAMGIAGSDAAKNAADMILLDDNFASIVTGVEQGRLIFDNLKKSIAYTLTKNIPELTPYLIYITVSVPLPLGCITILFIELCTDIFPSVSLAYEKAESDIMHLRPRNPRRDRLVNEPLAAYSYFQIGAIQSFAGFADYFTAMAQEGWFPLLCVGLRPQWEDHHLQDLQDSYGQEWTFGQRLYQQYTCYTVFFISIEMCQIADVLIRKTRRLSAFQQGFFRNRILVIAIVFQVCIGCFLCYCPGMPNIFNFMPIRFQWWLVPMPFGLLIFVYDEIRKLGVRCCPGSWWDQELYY
Chain of H+/K+-ATPase (P18598 whole entry partner): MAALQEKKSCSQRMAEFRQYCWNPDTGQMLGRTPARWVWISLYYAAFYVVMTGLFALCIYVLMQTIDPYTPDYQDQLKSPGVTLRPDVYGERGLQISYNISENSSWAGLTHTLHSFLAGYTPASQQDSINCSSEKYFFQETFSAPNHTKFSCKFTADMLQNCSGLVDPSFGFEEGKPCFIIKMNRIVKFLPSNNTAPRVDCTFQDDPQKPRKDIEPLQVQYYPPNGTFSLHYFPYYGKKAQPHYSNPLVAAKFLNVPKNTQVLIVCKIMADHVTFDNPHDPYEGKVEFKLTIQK

Structure (SMILES) | MIC ATCC 43504 (Helicobacter pylori; [1]) [µg/mL] | MIC Clinical 4 (Helicobacter pylori; [2]) [µg/mL] | MIC Clinical 82516 (Helicobacter pylori; [3]) [µg/mL] | MIC Clinical 82548 (Helicobacter pylori; [4]) [µg/mL] | MIC NCTC 11637 (Helicobacter pylori; [5]) [µg/mL] | MIC NCTC 11638 (Helicobacter pylori; [6]) [µg/mL] | IC50 for H+/K+-ATPase (H+/K+-ATPase) [mg/mL] | further results
CC(C)=CCC[C@](C)(O)[C@H]1CC[C@]2(C)[C@@H]1[C@H](O)C[C@@H]1[C@@]3(C)CC[C@H](O[C@@H]4O[C@H](CO)[C@@H](O)[C@H](O)[C@H]4O[C@@H]4O[C@H](CO)[C@@H](O)[C@H](O)[C@H]4O)C(C)(C)[C@@H]3CC[C@]12C [20(R)-ginsenoside Rg3] | 200 (≈ 255 µM) | 200 (≈ 255 µM) | 200 (≈ 255 µM) | 200 (≈ 255 µM) | 200 (≈ 255 µM) | 200 (≈ 255 µM) | 0.7 | 
CC(C)=CCC[C@@](C)(O)[C@H]1CC[C@]2(C)[C@@H]1[C@H](O)C[C@@H]1[C@@]3(C)CC[C@H](O[C@@H]4O[C@H](CO)[C@@H](O)[C@H](O)[C@H]4O)C(C)(C)[C@@H]3CC[C@]12C [20(R)-ginsenoside Rh2] | 100 (≈ 161 µM) | 100 (≈ 161 µM) | 100 (≈ 161 µM) | 100 (≈ 161 µM) | 100 (≈ 161 µM) | 100 (≈ 161 µM) | 0.5 | 
CC(C)=CCC[C@@](C)(O)[C@H]1CC[C@]2(C)[C@@H]1[C@H](O)C[C@@H]1[C@@]3(C)CC[C@H](O)C(C)(C)[C@@H]3CC[C@]12C [20(R)-protopanaxadiol] | 50 (≈ 109 µM) | 50 (≈ 109 µM) | 50 (≈ 109 µM) | 50 (≈ 109 µM) | 50 (≈ 109 µM) | 50 (≈ 109 µM) |  | 
CC(C)=CCC[C@](C)(O)[C@H]1CC[C@]2(C)[C@@H]1[C@H](O)C[C@@H]1[C@@]3(C)CC[C@H](O[C@@H]4O[C@H](CO)[C@@H](O)[C@H](O)[C@H]4O[C@@H]4O[C@H](CO)[C@@H](O)[C@H](O)[C@H]4O)C(C)(C)[C@@H]3CC[C@]12C [20(S)-ginsenoside Rg3] | 200 (≈ 255 µM) | 200 (≈ 255 µM) | 200 (≈ 255 µM) | 200 (≈ 255 µM) | 200 (≈ 255 µM) | 200 (≈ 255 µM) | 0.6 | 
CC(C)=CCC[C@](C)(O)[C@H]1CC[C@]2(C)[C@@H]1[C@H](O)C[C@@H]1[C@@]3(C)CC[C@H](O[C@@H]4O[C@H](CO)[C@@H](O)[C@H](O)[C@H]4O)C(C)(C)[C@@H]3CC[C@]12C [20(S)-ginsenoside Rh2] | 100 (≈ 161 µM) | 100 (≈ 161 µM) | 100 (≈ 161 µM) | 100 (≈ 161 µM) | 100 (≈ 161 µM) | 100 (≈ 161 µM) | 0.5 | 
CC(C)=CCC[C@](C)(O)[C@H]1CC[C@]2(C)[C@@H]1[C@H](O)C[C@@H]1[C@@]3(C)CC[C@H](O)C(C)(C)[C@@H]3CC[C@]12C [20(S)-protopanaxadiol] | 50 (≈ 109 µM) | 50 (≈ 109 µM) | 50 (≈ 109 µM) | 50 (≈ 109 µM) | 50 (≈ 109 µM) | 50 (≈ 109 µM) | >1 | inhibiting activity of proliferation of Helicobacter strain (Helicobacter pylori; result in words): potent inhibiting activity
CC(C)=CCC[C@](C)(O[C@@H]1O[C@H](CO)[C@@H](O)[C@H](O)[C@H]1O)[C@H]1CC[C@]2(C)[C@@H]1[C@H](O)C[C@@H]1[C@@]3(C)CC[C@H](O)C(C)(C)[C@@H]3CC[C@]12C [Compound K, reference compound] | >100 | >100 | >100 | >100 | >100 | >100 | >1 | 
CC(C)=CCC[C@](C)(O[C@@H]1O[C@H](CO[C@@H]2O[C@H](CO)[C@@H](O)[C@H](O)[C@H]2O)[C@@H](O)[C@H](O)[C@H]1O)[C@H]1CC[C@]2(C)[C@@H]1[C@H](O)C[C@@H]1[C@@]3(C)CC[C@H](O[C@@H]4O[C@H](CO)[C@@H](O)[C@H](O)[C@H]4O[C@@H]4O[C@H](CO)[C@@H](O)[C@H](O)[C@H]4O)C(C)(C)[C@@H]3CC[C@]12C [Ginsenoside Rb1] | >100 | >100 | >100 | >100 | >100 | >100 | >1 | 
CC(C)=CCC[C@](C)(O[C@@H]1O[C@H](CO[C@@H]2OC[C@H](O)[C@H](O)[C@H]2O)[C@@H](O)[C@H](O)[C@H]1O)[C@H]1CC[C@]2(C)[C@@H]1[C@H](O)C[C@@H]1[C@@]3(C)CC[C@H](O[C@@H]4O[C@H](CO)[C@@H](O)[C@H](O)[C@H]4O[C@@H]4O[C@H](CO)[C@@H](O)[C@H](O)[C@H]4O)C(C)(C)[C@@H]3CC[C@]12C [Ginsenoside Rb2, reference compound] | >100 | >100 | >100 | >100 | >100 | >100 | >1 | 
CC(C)=CCC[C@](C)(O[C@@H]1O[C@H](CO[C@@H]2O[C@@H](CO)[C@H](O)[C@H]2O)[C@@H](O)[C@H](O)[C@H]1O)[C@H]1CC[C@]2(C)[C@@H]1[C@H](O)C[C@@H]1[C@@]3(C)CC[C@H](O[C@@H]4O[C@H](CO)[C@@H](O)[C@H](O)[C@H]4O[C@@H]4O[C@H](CO)[C@@H](O)[C@H](O)[C@H]4O)C(C)(C)[C@@H]3CC[C@]12C [Ginsenoside Rc] |  |  |  |  |  |  |  | MIC (Helicobacter pylori; Helicobacter pylori, 72 h, H. pylori strain Clinical 4, 37° C., 3 days, read-out: MIC Clinical 4): > 100 µg/mL; MIC (Helicobacter pylori; Helicobacter pylori, 72 h, H. pylori strain Clinical 82516, 37° C., 3 days, read-out: MIC Clinical 82516): > 100 µg/mL; MIC (Helicobacter pylori; Helicobacter pylori, 72 h, H. pylori strain Clinical 82548, 37° C., 3 days, read-out: MIC Clinical 82548): > 100 µg/mL; MIC (Helicobacter pylori; Helicobacter pylori, ATCC43504, 72 h, H. pylori strain ATCC 43504, 37° C., 3 days, read-out: MIC ATCC 43504): > 100 µg/mL; MIC (Helicobacter pylori; Helicobacter pylori, NCTC11637, 72 h, H. pylori strain NCTC 11637, 37° C., 3 days, read-out: MIC NCTC 11637): > 100 µg/mL; MIC (Helicobacter pylori; Helicobacter pylori, NCTC11638, 72 h, H. pylori strain NCTC 11638, 37° C., 3 days, read-out: MIC NCTC 11638): > 100 µg/mL; IC50 (H+/K+-ATPase): > 927 µM
CC(C)=CCC[C@](C)(O)[C@H]1CC[C@]2(C)[C@@H]1[C@H](O)C[C@@H]1[C@@]3(C)CC[C@H](O)C(C)(C)[C@@H]3[C@@H](O[C@@H]3O[C@H](CO)[C@@H](O)[C@H](O)[C@H]3O)C[C@]12C [Ginsenoside Rh1] | >100 | >100 | >100 | >100 | >100 | >100 | >1 | 
COc1ccc2[nH]c([S+]([O-])Cc3ncc(C)c(OC)c3C)nc2c1 (centres unmarked) [Omeprazole, reference compound] |  |  |  |  |  |  |  | IC50 (H+/K+-ATPase): 57.9 µM
CC(C)=CCC[C@](C)(O)[C@H]1CC[C@]2(C)[C@@H]1[C@H](O)C[C@@H]1[C@@]3(C)CC[C@H](O)C(C)(C)[C@@H]3[C@@H](O)C[C@]12C [Protopanaxatriol] | 50 (≈ 105 µM) | 50 (≈ 105 µM) | 50 (≈ 105 µM) | 50 (≈ 105 µM) | 50 (≈ 105 µM) | 50 (≈ 105 µM) |  | 
CC1(C)CCC[C@](C)([C@H]2CC[C@]3(C)[C@@H]2[C@H](O)C[C@@H]2[C@@]4(C)CC[C@H](O)C(C)(C)[C@@H]4[C@@H](O)C[C@]23C)O1 [panaxatriol] |  |  |  |  |  |  |  | MIC (Helicobacter pylori; Helicobacter pylori, strain not specified, read-out: MIC): 50 µg/mL (≈ 105 µM)
CC(C)=CCC[C@@](C)(O)[C@H]1CC[C@]2(C)[C@@H]1[C@H](O)C[C@@H]1[C@@]3(C)CC[C@H](O)C(C)(C)[C@@H]3CC[C@]12C [protopanaxadiol] |  |  |  |  |  |  |  | MIC (Helicobacter pylori; strain not specified): 50 µg/mL (≈ 109 µM)
